From ChEMBL document CHEMBL5532748, “Design, synthesis and antibacterial activity evaluation of ebselen derivatives in NDM-1 producing bacteria” (RSC Med Chem, 2024)
Converted amounts (≈) assume the structure as drawn.

How the values were obtained:
Escherichia coli [1] = test: Antibacterial activity against Escherichia coli TG-1 transfected with Klebsiella pneumoniae full-length NDM-1 beta-lactamase gene; type: functional
Escherichia coli [2] = test: Antibacterial activity against Escherichia coli TG-1 transfected with Klebsiella pneumoniae full-length NDM-1 beta lactamase gene incubated in presence of meropenem; type: functional
Escherichia coli [3] = test: Synergistic antibacterial activity against Escherichia coli TG-1 transfected with Klebsiella pneumoniae full-length NDM-1 beta lactamase gene assessed as fractional inhibitory concentration index in presence of meropenem; type: functional
Escherichia coli [4] = test: Antibacterial activity against Escherichia coli BJE-4 expressing NDM-1 gene; type: functional
Escherichia coli [5] = test: Antibacterial activity against Escherichia coli BJE-4 expressing NDM-1 gene in presence of meropenem; type: functional
Escherichia coli [6] = test: Synergistic antibacterial activity against Escherichia coli BJE-4 expressing NDM-1 gene assessed as fractional inhibitory concentration index in presence of meropenem; type: functional
[7] = target: Metallo-beta-lactamase type 2 (Bacteria, UniProt C7C422); test: Inhibition of NDM-1 (unknown origin) using nitrocefin as substrate incubated for 15 to 60 mins by absorption based analysis
Chain of Metallo-beta-lactamase type 2 (C7C422 whole entry): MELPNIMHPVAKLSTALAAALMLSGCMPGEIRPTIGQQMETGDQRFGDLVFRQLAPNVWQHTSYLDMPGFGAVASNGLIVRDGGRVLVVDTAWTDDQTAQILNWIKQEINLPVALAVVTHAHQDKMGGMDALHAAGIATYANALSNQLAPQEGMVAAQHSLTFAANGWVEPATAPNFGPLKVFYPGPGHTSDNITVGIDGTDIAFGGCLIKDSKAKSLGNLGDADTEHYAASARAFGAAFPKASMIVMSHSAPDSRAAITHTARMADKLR

| SMILES | MIC (Escherichia coli [1]) [µg/mL] | MIC (Escherichia coli [2]) [µg/mL] | fractional inhibitory concentration index (FICI) (Escherichia coli [3]) | MIC (Escherichia coli [4]) [µg/mL] | MIC (Escherichia coli [5]) [µg/mL] | fractional inhibitory concentration index (FICI) (Escherichia coli [6]) | IC50 [7] [µM] |
| --- | --- | --- | --- | --- | --- | --- | --- |
| CC(C)(C)C(=O)NCCCn1[se]c2ccccc2c1=O | > 64 | 16 | 0.5 | > 16 | 8 | 0.625 | – |
| CC(C)(C)OC(=O)N1CC[C@@H](n2[se]c3ccccc3c2=O)C1 | > 64 | ≤ 8 | 0.25 | > 16 | 8 | 0.625 | – |
| CC(C)(C)OC(=O)NCCCn1[se]c2ccccc2c1=O | > 64 | 16 | 0.5 | > 16 | 8 | 0.625 | – |
| COC(=O)c1ccc(-n2[se]c3ccccc3c2=O)cc1C | > 64 | 16 | 0.5 | > 16 | 8 | 0.625 | – |
| O=c1c2ccccc2[se]n1CCNS(=O)(=O)c1ccc(F)cc1 | > 64 | ≤ 8 | 0.25 | > 16 | 8 | 0.625 | – |
| CSc1nnc(-n2[se]c3ccccc3c2=O)s1 | > 64 | ≤ 8 | 0.25 | > 16 | 8 | 0.625 | 8.8 |
| COC(=O)c1cccc(-n2[se]c3ccccc3c2=O)c1 | > 64 | ≤ 8 | 0.25 | > 16 | 8 | 0.625 | 3.63 |
| O=c1c2ccccc2[se]n1-c1ccc(-c2ccccc2)cc1 | 64 (≈ 183 µM) | 64 | 2 | > 16 | 8 | 0.625 | – |
| CC(C)(C)c1ccc(S(=O)(=O)NCCn2[se]c3ccccc3c2=O)cc1 | > 64 | ≤ 8 | 0.25 | > 16 | 8 | 0.625 | – |
| Cc1ccc(S(=O)(=O)NCCn2[se]c3ccccc3c2=O)cc1 | > 64 | ≤ 8 | 0.25 | > 16 | 8 | 0.625 | – |
| CC(C)(C)OC(=O)NCCn1[se]c2ccccc2c1=O | > 64 | 16 | 0.5 | > 16 | 8 | 0.625 | 1.26 |
| CC(C)(C)C(=O)NCCn1[se]c2ccccc2c1=O | > 64 | 64 | 2 | > 16 | 8 | 0.625 | – |
